Test results reported in patent US20260216348A1, “IRAK DEGRADATION AGENT AND USE THEREOF” (Increland, priority 2023, published 2026).

Legend:
[1] = system: LPS/IL-1β-induced IL-6 secretion in human peripheral blood mononuclear cells (PBMCs); assay: Inhibition of LPS/IL-1β-induced IL-6 secretion in human PBMCs (IL-6 ELISA); format: cell-based; settings: PBMC, LPS 10 ng/mL + IL-1β 20 ng/mL, 24 h pre-incubation, 20 h stimulation
Experimental: This experiment was carried out in RPMI 1640 medium containing 10% FBS and 1% penicillin/streptomycin, with each of the compounds at an initial test concentration of 1 μM.
The compound was dissolved in DMSO to prepare a stock solution, which was serially diluted into some working solutions with a 5-fold concentration gradient using the culture medium and then added to a 96-well plate at 10 μL per well. PBMCs (Batch No.: P122101102C; Milecell Biotechnology Inc.) were counted and diluted to a cell concentration of about 1.3×10^6 cells/mL, and then added to the aforementioned compound-containing 96-well plate at 150 μL per well. The system was mixed well and incubated in a 5% CO2 incubator at 37° C. for 24 h. Then 5 μL of LPS (final concentration: 10 ng/mL) and 5 μL of IL-1β (final concentration: 20 ng/mL) were added to each well, respectively, and the culture was continued for 20 h in a 5% CO2 incubator at 37° C. After incubation, the 96-well plate was centrifuged at 2000 rpm for 4 min. The supernatant was collected and diluted 200-fold, then detected using an IL-6 ELISA kit. The OD450 values were read, and converted to IL-6 concentrations based on a standard curve. The dose-response curves were fitted using GraphPad 8.0 to calculate the IC50 values.

IRAK4 = target: T1, IRAK4 (Homo sapiens, UniProt Q9NWZ3); assay: IRAK4 protein degradation in THP1 cells (Western blot); format: cell-based; settings: THP-1 cells, 24 h
T1 construct: Effect of the Compounds on IRAK4 Protein Degradation in THP1 Cells; endogenous in cells; host or cells: THP-1 cells
T1 sequence (Q9NWZ3 1-460): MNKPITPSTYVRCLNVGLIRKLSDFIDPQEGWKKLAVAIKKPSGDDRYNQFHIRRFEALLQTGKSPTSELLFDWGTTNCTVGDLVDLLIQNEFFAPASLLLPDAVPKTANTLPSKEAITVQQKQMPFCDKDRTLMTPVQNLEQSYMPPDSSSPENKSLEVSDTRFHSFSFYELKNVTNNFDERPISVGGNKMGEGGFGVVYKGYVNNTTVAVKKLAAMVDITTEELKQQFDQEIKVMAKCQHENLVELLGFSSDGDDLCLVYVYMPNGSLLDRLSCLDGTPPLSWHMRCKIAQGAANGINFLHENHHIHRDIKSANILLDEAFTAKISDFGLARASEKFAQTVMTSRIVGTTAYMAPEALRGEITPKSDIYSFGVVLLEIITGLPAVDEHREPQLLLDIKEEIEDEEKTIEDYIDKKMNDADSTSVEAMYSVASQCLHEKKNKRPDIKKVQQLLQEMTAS
Experimental: THP-1 cells were seeded into a 96-well cell culture plate, with 2×10^5 cells and 90 μL of culture medium per well. The cell culture plate was cultured in an incubator with 5% CO2 at 37° C. overnight. The compound was dissolved in DMSO to prepare a stock solution, which was serially diluted into a series of working solutions with a 5-fold concentration gradient using the culture medium and then added to the aforementioned 96-well plate at 10 μL per well. The cell culture plate was further incubated for 24 h in a 5% CO2 incubator at 37° C. After incubation, the 96-well plate was centrifuged and the supernatant was discarded, followed by adding 40 μL of cell lysis buffer containing […]/phosphatase inhibitors to each well for sufficient lysis on an ice bath. Protein quantification was performed using the BCA protein quantification kit, followed by the preparation of Western blot samples. […] After electrophoresis, protein transfer was performed using a PVDF membrane under ice bath conditions for 1 h. After the transfer was completed, the PVDF membrane was blocked with gentle shaking in 5% skim milk at room temperature for 1 h. After blocking, the PVDF membrane was incubated with the primary antibody overnight with gentle shaking at 4° C. The PVDF membrane was washed 3 times with TBST, then the secondary antibody was added and incubated for 1 h with gentle shaking at room temperature, followed by washing of the PVDF membrane with TBST for 3 times. After the washes were completed, the chemiluminescent substrate was added; the PVDF membrane was scanned using a Clinx imager, semi-quantitative analysis was performed with ImageJ software, and the DC50 was calculated using GraphPad Prism 8.0.

Structure (SMILES)	IC50 [1] [nM]	DC50 (IRAK4) [nM]
CN(C)c1cc2nn([C@H]3CC[C@H](CN4CCN(c5nc6ccc(N7CCC(=O)NC7=O)cc6o5)CC4)CC3)cc2cc1NC(=O)c1cnn2cccnc12 [TM-75]	13.2	–
CN(C)c1cc2nn([C@H]3CC[C@H](CN4CCC(C5Nc6cc(N7CCC(=O)NC7=O)ccc6C5=O)CC4)CC3)cc2cc1NC(=O)c1cnn2cccnc12 (some centres unmarked) [TM-144]	38.4	–
C[C@@H]1CN(c2cc3nn(C4CCN(CC5CCC(n6cc7cc(C8CCC(=O)NC8=O)ccc7n6)CC5)CC4)cc3cc2NC(=O)c2cnn3cccnc23)CCO1 (some centres unmarked) [TM-49]	1.33	–
CN(C)c1cc2nn([C@H]3CC[C@H](CN4CCC(c5nc6ccc(N7CCC(=O)NC7=O)cc6o5)CC4)CC3)cc2cc1NC(=O)c1cnn2cccnc12 [TM-186]	–	0.98
CN(C)c1cc2nn([C@H]3CC[C@H](CN4CCC(c5cc6cc(N7CCC(=O)NC7=O)ccn6n5)CC4)CC3)cc2cc1NC(=O)c1cnn2cccnc12 [TM-175]	13.2	–
C[C@@H]1CN(c2cc3nn([C@H]4CC[C@H](CN5CCC(n6cc7cc(N8CCC(=O)NC8=O)ccc7n6)CC5)CC4)cc3cc2NC(=O)c2cnn3cccnc23)CCO1 [TM-46]	7.46	–
CN(C)c1cc2nn([C@H]3CC[C@H](CN4C[C@@H]5[C@H](C4)[C@H]5n4cc5ccc(N6CCC(=O)NC6=O)cc5n4)CC3)cc2cc1NC(=O)c1cnn2cccnc12 [TM-182]	–	3.82
C[C@@H]1CN(C[C@H]2CC[C@H](n3cc4cc(NC(=O)c5cnn6cccnc56)c(N(C)C)cc4n3)CC2)CC[C@H]1n1cc2ccc(N3CCC(=O)NC3=O)cc2n1 [TM-26]	0.54	–
C[C@@H]1CN(c2cc3nn([C@H]4CC[C@H](CN5CCC(n6cc7ccc(C8CCC(=O)NC8=O)cc7n6)CC5)CC4)cc3cc2NC(=O)c2cnn3cccnc23)CCO1 (some centres unmarked) [TM-48]	1.61	–
CN(C)c1cc2nn([C@H]3CC[C@H](CN4CC[C@H](F)[C@@H](n5cc6cc(N7CCC(=O)NC7=O)ccc6n5)C4)CC3)cc2cc1NC(=O)c1cnn2cccnc12 [TM-214]	–	1.21
CN(C)c1cc2nn([C@H]3CC[C@H](CN4CCN(c5nc6ccc(N7CCC(=O)NC7=O)cc6s5)CC4)CC3)cc2cc1NC(=O)c1cnn2cccnc12 [TM-55]	1.61	–
C[C@H]1CN(C[C@H]2CC[C@H](n3cc4cc(NC(=O)c5cnn6cccnc56)c(N(C)C)cc4n3)CC2)CCN1c1nc2ccc(N3CCC(=O)NC3=O)cc2s1 [TM-66]	19.6	–
CN(C)c1cc2nn([C@H]3CC[C@H](CN4C[C@@H]5C[C@H]4CN5c4nc5ccc(N6CCC(=O)NC6=O)cc5s4)CC3)cc2cc1NC(=O)c1cnn2cccnc12 [TM-74]	0.86	–
C[C@@H]1CN(c2cc3nn([C@H]4CC[C@H](CN5CC6CN(c7nc8cc(N9CCC(=O)NC9=O)ccc8s7)CC6C5)CC4)cc3cc2NC(=O)c2cnn3cccnc23)CCO1 (some centres unmarked) [TM-63]	8.91	–
CN(C)c1cc2nn([C@H]3CC[C@H](CN4CC5(CCN(c6nc7cc(F)c(N8CCC(=O)NC8=O)cc7o6)CC5)C4)CC3)cc2cc1NC(=O)c1cnn2cccnc12 [TM-90]	1.44	–
CN(C)c1cc2nn(C3CCN(C[C@H]4CC[C@H](n5cc6cc(N7CCC(=O)NC7=O)ccc6n5)CC4)CC3)cc2cc1NC(=O)c1cnn2cccnc12 [TM-53]	6.14	–
CN(C)c1cc2nn([C@H]3CC[C@H](CN4CCN(c5nc6ccc(N7CCC(=O)NC7=O)cn6n5)CC4)CC3)cc2cc1NC(=O)c1cnn2cccnc12 [TM-110]	21.6	–
C[C@@H]1CN(c2cc3nn([C@H]4CC[C@H](CN5CCC(n6cc7cc(C8CCC(=O)NC8=O)ccc7n6)CC5)CC4)cc3cc2NC(=O)c2cnn3cccnc23)CCO1 (some centres unmarked) [TM-47]	3.06	–
CN(C)c1cc2nn([C@H]3CC[C@H](CN4CC5(CCN(c6nc7ccc(N8CCC(=O)NC8=O)cn7n6)CC5)C4)CC3)cc2cc1NC(=O)c1cnn2cccnc12 [TM-148]	11.6	–

Structure (SMILES)	IC50 [1] [nM]	DC50 (IRAK4) [nM]
C[C@@H]1CN(c2cc3nn([C@H]4CC[C@H](CN5CC6CN(c7nc8ccc(N9CCC(=O)NC9=O)cc8s7)CC6C5)CC4)cc3cc2NC(=O)c2cnn3cccnc23)CCO1 (some centres unmarked) [TM-62]	2.48	–
CN(C)c1cc2nn([C@H]3CC[C@H](CN4C5CCC4CN(c4nc6ccc(N7CCC(=O)NC7=O)cc6o4)C5)CC3)cc2cc1NC(=O)c1cnn2cccnc12 [TM-146]	44.1	–
CN(C)c1cc2nn([C@H]3CC[C@H](CN4CCCN(c5nc6ccc(N7CCC(=O)NC7=O)cc6s5)CC4)CC3)cc2cc1NC(=O)c1cnn2cccnc12 [TM-150]	6.94	–
C[C@@H]1CN(C[C@H]2CC[C@H](n3cc4cc(NC(=O)c5cnn6cccnc56)c(N(C)C)cc4n3)CC2)CCN1c1nc2ccc(N3CCC(=O)NC3=O)cc2s1 [TM-65]	2.26	–
CN(C)c1cc2nn([C@H]3CC[C@H](CN4C[C@H]5C[C@@H]4CN5c4nc5ccc(N6CCC(=O)NC6=O)cc5o4)CC3)cc2cc1NC(=O)c1cnn2cccnc12 [TM-83]	44.1	–
O=C1CCC(c2ccc3cn(C4CCN(C[C@H]5CC[C@H](n6cc7cc(NC(=O)c8cnn9cccnc89)c(N8CCOCC8)cc7n6)CC5)CC4)nc3c2)C(=O)N1 (some centres unmarked) [TM-1]	5.86	–
CN(C)c1cc2nn([C@H]3CC[C@H](CN4CCN(c5nc6cc(N7CCC(=O)NC7=O)ccc6o5)CC4)CC3)cc2cc1NC(=O)c1cnn2cccnc12 [TM-145]	2.62	–
CN(C)c1cc2nn([C@H]3CC[C@H](CN4CCN(c5nc6cc(N7CCC(=O)NC7=O)ccc6s5)CC4)CC3)cc2cc1NC(=O)c1cnn2cccnc12 [TM-54]	3.06	–
C[C@@H]1CN(c2cc3nn([C@H]4CC[C@H](CN5CCN(c6nc7cc(N8CCC(=O)NC8=O)ccc7s6)CC5)CC4)cc3cc2NC(=O)c2cnn3cccnc23)CCO1 [TM-56]	8.81	–
CN(C)c1cc2nn(C3CCC(CN4CC5CN(c6nc7cc(N8CCC(=O)NC8=O)ccc7s6)CC5C4)CC3)cc2cc1NC(=O)c1cnn2cccnc12 (centres unmarked) [TM-61]	1.15	–
C[C@@H]1CN(c2cc3nn([C@H]4CC[C@H](CN5CCC(n6cc7ccc(N8CCC(=O)NC8=O)cc7n6)CC5)CC4)cc3cc2NC(=O)c2cnn3cccnc23)CCO1 [TM-45]	8.81	–
C[C@@H]1CN(c2cc3nn([C@H]4CC[C@H](CN5CCN(c6nc7ccc(N8CCC(=O)NC8=O)cc7s6)CC5)CC4)cc3cc2NC(=O)c2cnn3cccnc23)CCO1 [TM-57]	10.2	–
CN(C)c1cc2nn(C3CCC(CN4CC5CN(c6nc7ccc(N8CCC(=O)NC8=O)cc7s6)CC5C4)CC3)cc2cc1NC(=O)c1cnn2cccnc12 (centres unmarked) [TM-60]	1.94	–
CN(C)c1cc2nn(C3CCN(CC4CCN(c5nc6cc(N7CCC(=O)NC7=O)ccc6s5)CC4)CC3)cc2cc1NC(=O)c1cnn2cccnc12 [TM-128]	36.6	–
O=C1CCC(c2ccc3nn(C4CCN(C[C@H]5CC[C@H](n6cc7cc(NC(=O)c8cnn9cccnc89)c(N8CCOCC8)cc7n6)CC5)CC4)cc3c2)C(=O)N1 (some centres unmarked) [TM-2]	5.07	–
CN(C)c1cc2nn([C@H]3CC[C@H](CN4CCN(c5nc6cc(F)c(N7CCC(=O)NC7=O)cc6o5)CC4)CC3)cc2cc1NC(=O)c1cnn2cccnc12 [TM-85]	8.41	–
O=C1CCN(c2ccc3nn(C4CCN(C[C@H]5CC[C@H](n6cc7cc(NC(=O)c8cnn9cccnc89)c(N8CCOCC8)cc7n6)CC5)CC4)cc3c2)C(=O)N1 [TM-44]	10.2	–
CN(C)c1cc2nn(C3CCN(C[C@H]4CC[C@H](n5cc6ccc(N7CCC(=O)NC7=O)cc6n5)CC4)CC3)cc2cc1NC(=O)c1cnn2cccnc12 [TM-52]	18.7	–
C[C@@H]1CN(c2cc3nn(C4CCN(CC5CCC(n6cc7ccc(C8CCC(=O)NC8=O)cc7n6)CC5)CC4)cc3cc2NC(=O)c2cnn3cccnc23)CCO1 (some centres unmarked) [TM-50]	4.65	–
